What was measured:
crabgrass = test: Test B pre/postemergence crabgrass; type: in vivo, Digitaria sanguinalis
Method in brief: (§1)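 Herbicidal effect was estimated by eye on a ten-point control scale after plants spent twelve to sixteen days in a greenhouse following soil or foliar treatment. Foliar sprays targeted plants at one to four leaves; all doses were formulated in a non-phytotoxic solvent with surfactant.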

rape = test: Test B pre/postemergence rape; type: in vivo, Brassica napus
Method in brief: as §1

sugar beet = test: Test B pre/postemergence sugar beet; type: in vivo, Beta vulgaris
Method in brief: as §1

giant foxtail = test: Test B pre/postemergence giant foxtail; type: in vivo, Setaria faberii
Method in brief: as §1

rice = test: Test B flood test rice; type: in vivo, Oryza sativa
Method in brief: (§2)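 Read-out is a visual response score from 0 (no effect) to 10 (complete control), assigned by comparison with untreated controls. Treatment was applied at the 2-leaf stage, and plants stayed in the greenhouse for twelve to sixteen days before scoring.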

velvetleaf = test: Test B pre/postemergence velvetleaf; type: in vivo, Abutilon theophrasti
Method in brief: as §1

blackgrass = test: Test B pre/postemergence blackgrass; type: in vivo, Alopecurus myosuroides
Method in brief: as §1

purple nutsedge = test: Test B pre/postemergence purple nutsedge; type: in vivo, Cyperus rotundus
Method in brief: as §1

wild oat = test: Test B pre/postemergence wild oat; type: in vivo, Avena fatua
Method in brief: as §1

corn = test: Test B pre/postemergence corn; type: in vivo, Zea mays
Method in brief: as §1

smallflower flatsedge = test: Test B flood test smallflower flatsedge; type: in vivo, Cyperus difformis
Method in brief: as §2

duck salad = test: Test B flood test duck salad; type: in vivo, Heteranthera limosa
Method in brief: as §2

surinam grass = test: Test B pre/postemergence surinam grass; type: in vivo, Brachiaria decumbens
Method in brief: as §1

bamyardgrass = test: Test B flood test barnyardgrass; type: in vivo, Echinochloa crus-galli
Method in brief: as §2

wheat = test: Test B pre/postemergence wheat; type: in vivo, Triticum aestivum
Method in brief: as §1

[1] = Postemergence, Rate 62 g/ha, scale 0 to 10, 0 is no effect, 10 is complete control
[2] = Postemergence, Rate 125 g/ha, scale of 0 to 10 where 0 is no effect and 10 is complete control
[3] = Postemergence, Rate 250 g/ha, scale of 0 to 10, 0 is no effect, 10 is complete control
[4] = Postemergence, Rate 500 g/ha, scale of 0 to 10 where 0 is no effect and 10 is complete control
[5] = Preemergence, Rate 62 g/ha, scale of 0 to 10 where 0 is no effect and 10 is complete control
[6] = Preemergence, Rate 125 g/ha, scale of 0 to 10 where 0 is no effect and 10 is complete control
[7] = Preemergence, Rate 250 g/ha, scale 0 to 10 (0 no effect, 10 complete control)
[8] = Preemergence, Rate 500 g/ha, scale of 0 to 10 where 0 is no effect and 10 is complete control
[9] = Rate 62 g/ha, flood test species, Pre-emergence, visual evaluation after twelve to sixteen days
[10] = Rate 125 g/ha, under heading Pre-emergence, flood test species, visual evaluation after twelve to sixteen days
[11] = Rate 250 g/ha, Pre-emergence (flood test species), scale 0 to 10, 0 is no effect, 10 is complete control
[12] = Rate 500 g/ha, Pre-emergence section of Table B, 0 to 10 scale (0 no effect, 10 complete control)

CC(C)N(C(=O)n1oc(=O)n(CCC(=O)N(C)C)c1=O)c1ccc(F)cc1 [Compound 638]
Plant response rating, Crabgrass (crabgrass; [1]): 2 | Plant response rating, Crabgrass (crabgrass; [2]): 5 | Crabgrass plant response rating (crabgrass; [3]): 8 | Plant response rating, Crabgrass (crabgrass; [4]): 9 | Crabgrass plant response rating (crabgrass; [5]): 9 | Crabgrass plant response rating (crabgrass; [6]): 9 | Plant response rating, Crabgrass (crabgrass; [7]): 9 | Plant response rating, Crabgrass (crabgrass; [8]): 10 | Plant response rating, Rape (rape; [1]): 0 | Plant response rating, Rape (rape; [2]): 0 | Rape plant response rating (rape; [3]): 0 | Plant response rating, Rape (rape; [4]): 0 | Rape plant response rating (rape; [5]): 0 | Rape plant response rating (rape; [6]): 5 | Plant response rating, Rape (rape; [7]): 8 | Plant response rating, Rape (rape; [8]): 10 | Plant response rating, Sugarbeets (sugar beet; [1]): 0 | Plant response rating, Sugarbeets (sugar beet; [2]): 0 | Sugarbeets plant response rating (sugar beet; [3]): 0 | Sugarbeets plant response rating (sugar beet; [5]): 0 | Sugarbeets plant response rating (sugar beet; [6]): 6 | Plant response rating, Sugarbeets (sugar beet; [7]): 6 | Plant response rating, Sugarbeets (sugar beet; [8]): 10 | Plant response rating, Giant foxtail (giant foxtail; [1]): 5 | Plant response rating, Giant foxtail (giant foxtail; [2]): 6 | Giant foxtail plant response rating (giant foxtail; [3]): 8 | Plant response rating, Giant foxtail (giant foxtail; [4]): 8 | Giant foxtail plant response rating (giant foxtail; [5]): 10 | Giant foxtail plant response rating (giant foxtail; [6]): 10 | Plant response rating, Giant foxtail (giant foxtail; [7]): 10 | Plant response rating, Giant foxtail (giant foxtail; [8]): 10 | Plant response rating, Rice (0 to 10 scale, 0 is no effect, 10 is complete control) (rice; [9]): 0 | Rice plant response rating (0 to 10 scale, 0 is no effect, 10 is complete control) (rice; [10]): 0 | Rice plant response rating (rice; [11]): 0 | Rice plant response rating (rice; [12]): 0 | Plant response rating, Velvetleaf (velvetleaf; [1]): 0 | Plant response rating, Velvetleaf (velvetleaf; [2]): 2 | Velvetleaf plant response rating (velvetleaf; [3]): 4 | Velvetleaf plant response rating (velvetleaf; [5]): 3 | Velvetleaf plant response rating (velvetleaf; [6]): 5 | Plant response rating, Velvetleaf (velvetleaf; [7]): 5 | Plant response rating, Velvetleaf (velvetleaf; [8]): 10 | Plant response rating, Blackgrass (blackgrass; [1]): 0 | Plant response rating, Blackgrass (blackgrass; [2]): 4 | Blackgrass plant response rating (blackgrass; [3]): 6 | Plant response rating, Blackgrass (blackgrass; [4]): 7 | Blackgrass plant response rating (blackgrass; [5]): 4 | Blackgrass plant response rating (blackgrass; [6]): 5 | Plant response rating, Blackgrass (blackgrass; [7]): 9 | Plant response rating, Blackgrass (blackgrass; [8]): 9 | Plant response rating, Nutsedge (purple nutsedge; [1]): 0 | Plant response rating, Nutsedge (purple nutsedge; [2]): 5 | Plant response rating, Nutsedge (purple nutsedge; [4]): 7 | Nutsedge plant response rating (purple nutsedge; [5]): 0 | Nutsedge plant response rating (purple nutsedge; [6]): 5 | Plant response rating, Nutsedge (purple nutsedge; [7]): 5 | Plant response rating, Nutsedge (purple nutsedge; [8]): 8 | Plant response rating, Wild oats (wild oat; [1]): 1 | Plant response rating, Wild oats (wild oat; [2]): 1 | Wild oats plant response rating (wild oat; [3]): 1 | Wild oats plant response rating (wild oat; [5]): 4 | Wild oats plant response rating (wild oat; [6]): 4 | Plant response rating, Wild oats (wild oat; [7]): 10 | Plant response rating, Wild oats (wild oat; [8]): 10 | Plant response rating, Corn (corn; [1]): 0 | Plant response rating, Corn (corn; [2]): 2 | Corn plant response rating (corn; [3]): 2 | Plant response rating, Corn (corn; [4]): 3 | Corn plant response rating (corn; [5]): 0 | Corn plant response rating (corn; [6]): 8 | Plant response rating, Corn (corn; [8]): 8 | Plant response rating, S. Flatsedge (0 to 10 scale, 0 is no effect, 10 is complete control) (smallflower flatsedge; [9]): 0 | S. Flatsedge plant response rating (0 to 10 scale, 0 is no effect, 10 is complete control) (smallflower flatsedge; [10]): 0 | S. Flatsedge plant response rating (smallflower flatsedge; [11]): 0 | S. Flatsedge plant response rating (smallflower flatsedge; [12]): 0 | Plant response rating, Ducksalad (0 to 10 scale, 0 is no effect, 10 is complete control) (duck salad; [9]): 0 | Ducksalad plant response rating (0 to 10 scale, 0 is no effect, 10 is complete control) (duck salad; [10]): 0 | Ducksalad plant response rating (duck salad; [11]): 0 | Ducksalad plant response rating (duck salad; [12]): 0 | Plant response rating, B. signalgrass (surinam grass; [1]): 0 | Plant response rating, B. signalgrass (surinam grass; [2]): 4 | B. signalgrass plant response rating (surinam grass; [3]): 6 | Plant response rating, B. signalgrass (surinam grass; [4]): 6 | B. signalgrass plant response rating (surinam grass; [5]): 4 | B. signalgrass plant response rating (surinam grass; [6]): 7 | Plant response rating, B. signalgrass (surinam grass; [7]): 8 | Plant response rating, B. signalgrass (surinam grass; [8]): 8 | Plant response rating, Barnyardgrass (0 to 10 scale, 0 is no effect, 10 is complete control) (bamyardgrass; [9]): 0 | Barnyardgrass plant response rating (0 to 10 scale, 0 is no effect, 10 is complete control) (bamyardgrass; [10]): 0 | Barnyardgrass plant response rating (bamyardgrass; [11]): 0 | Barnyardgrass plant response rating (bamyardgrass; [12]): 0 | Plant response rating, Wheat (wheat; [1]): 0 | Plant response rating, Wheat (wheat; [2]): 0 | Wheat plant response rating (wheat; [3]): 3 | Wheat plant response rating (wheat; [5]): 0 | Wheat plant response rating (wheat; [6]): 0 | Plant response rating, Wheat (wheat; [7]): 3 | Plant response rating, Wheat (wheat; [8]): 7

— patent US6737383B1, “Herbicidal oxadiazolidines” (priority 1999, dated 2004)
